Assay in all cases: inhibition of tumour cell growth, NCI panel, 48 h
Assay [1] has as its system COLO 205 colon.
Assay [2] relates to HL-60(TB) leukemia.
Assay [3] relates to HOP-92 NSCLC.
Assay [4] deals with IGROV1 ovarian.
For assay [5], the system named is K-562 leukemia.
The subject of assay [6] is MALME-3M melanoma.
Assay [7] has as its system MOLT-4 leukemia.
Assay [8] has as its system NCI-H23 lung.
Assay [9] concerns OVCAR-8 ovarian.
Assay [10] concerns SF-268 CNS.
Assay [11] deals with SK-MEL-5 melanoma.
The subject of assay [12] is SN12C renal.
Assay [13] relates to SNB-19 CNS.
The subject of assay [14] is SW-620 colon.
The test system of assay [15] is U251 CNS.
In assay [16] the test system is UACC-257 melanoma.
Assay [17] concerns UACC-62 melanoma.
Assay [18] relates to UO-31 renal.
For assay [19], the system named is CAKI-1 renal.
Assay [20] concerns M14 melanoma.

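Grown in 96-well plates, cells were treated for 48 hours with each compound at five concentrations. Insufficient inhibition: endpoint recorded as highest concentration tested. TGI denotes the concentration required for complete inhibition of growth.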

For `COc1nc(NC2OC(CO)C(O)C(O)C2O)c(N)c(=O)[nH]1` (stereo not given), the TGI in [1], in assay [2], in assay [3], in assay [4], in assay [5] and in [6] was above 100 µM in each case. Also, the TGI in [7], in [8], in [9], in assay [10], in assay [11] and in [12] was above 100 µM throughout. In addition, the TGI in assay [13], in [14], in assay [15], in [16], in assay [17] and in assay [18] was above 100 µM each time.

Regarding `COc1ccc(-c2c3c(nc4nc(SCC(=O)c5ccc(Br)cc5)nc(N)c24)CCCC3)cc1OC`, the TGI in assay [19], in assay [1], in assay [2], in [4], in assay [5] and in [20] was above 100 µM in each case. In addition, the TGI in [6] is above 100 µM; in assay [8], above 100 µM; in assay [9], above 100 µM; in assay [10], above 100 µM; in assay [11] it was 21.7 µM; in assay [12], above 100 µM. For the same molecule, the TGI in assay [13], in [14], in assay [15], in assay [16], in [17] and in [18] was above 100 µM throughout.

As for `COC(=O)Cc1c(C2C(CC(=O)OC)c3ccccc3N2C2OC(CO)C(O)C(O)C2O)[nH]c2ccccc12` (stereo not given), the TGI in assay [19], in assay [1], in assay [3], in [4], in assay [20] and in assay [6] was above 100 µM in each case. Also, the TGI in [7], in [8], in assay [10], in assay [11], in assay [12] and in assay [13] was above 100 µM in each case. The TGI in assay [14], in assay [15], in assay [16], in assay [17] and in assay [18] was above 100 µM throughout.

For the molecule `O=C1CCC2COc3ccc(O)c1c32` (stereo not given), the TGI in assay [19], in assay [1], in assay [2], in assay [3], in assay [4] and in assay [5] was above 100 µM in each case. The TGI in [20], in assay [7], in [8], in assay [9], in [11] and in assay [12] was above 100 µM each time. Moreover, the TGI in assay [13] is 95.9 µM; in [14], above 100 µM; in assay [15], above 100 µM; in [16] it was above 100 µM; in [17], above 100 µM.
